The target of experiment [1] is T1, MOR receptor (OPRM1) (Homo sapiens, UniProt P35372). The experiment in a line: HTRF-cAMP cell experiment. The following applies: for cAMP Emax (%) Morphine was 100% / EC50 / pEC50: PathHunter CHO-K1 OPRM1 β-Arrestin cell line; for cAMP Emax (%) Morphine was 100% / Emax: maximum effect relative to morphine = 100%; for EC50: cAMP EC50 (nM); for EC50 / pEC50: NKH477-stimulated cAMP, HTRF; for pEC50: read-out: cAMP EC50; for Emax: read-out: cAMP Emax (%) Morphine was 100%, PathHunter CHO-K1 OPRM1 β-Arrestin cell line.

Experiment [2] addresses T1, MOR receptor (OPRM1). Briefly: β-Arrestin cell experiment. The following applies: maximum effect relative to morphine = 100%; for β-arrestin Emax (%) Morphine was 100%: PathHunter CHO-K1 OPRM1 β-Arrestin cell line; for Emax: read-out: β-arrestin Emax (%) Morphine was 100%, PathHunter CHO-K1 OPRM1 β-Arrestin cell line.

pEC50: −log10 of the molar value. Like-named read-outs stand apart in the source and are kept apart here.

T1 sequence (P35372 whole entry): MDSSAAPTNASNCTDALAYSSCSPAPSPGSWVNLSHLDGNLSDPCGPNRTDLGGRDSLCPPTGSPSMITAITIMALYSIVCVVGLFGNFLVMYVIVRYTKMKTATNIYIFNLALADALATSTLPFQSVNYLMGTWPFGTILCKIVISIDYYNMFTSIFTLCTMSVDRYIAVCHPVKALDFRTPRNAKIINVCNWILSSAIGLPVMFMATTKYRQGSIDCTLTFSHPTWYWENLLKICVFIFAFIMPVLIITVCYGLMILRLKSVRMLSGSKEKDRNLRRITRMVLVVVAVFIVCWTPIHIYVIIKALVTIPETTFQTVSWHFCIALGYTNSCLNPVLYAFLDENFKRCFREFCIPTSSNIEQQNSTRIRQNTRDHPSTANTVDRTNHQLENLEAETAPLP

In the case of `CCC1CC(NCC[C@@]2(c3ccccn3)CCOC3(CCCC3)C2)c2ccnn21` (mixture of isomers) [Compound H-4-1, 6-ethyl-N-(2-((R)-9-(pyridin-2-yl)-6-oxaspiro[4.5]decan-9-yl)ethyl)-5,6-dihydro-4H-pyrrolo[1,2-b]pyrazol-4-amine], at MOR receptor (OPRM1) [1], the “cAMP Emax (%) Morphine was 100%” value turned out to be 64.1% and the EC50 amounted to 8 nM. The “β-arrestin Emax (%) Morphine was 100%” value at MOR receptor (OPRM1) [2] is 1.8%.
As for `CCC1CC(NCC[C@@]2(c3ccccn3)CCOC3(CCCC3)C2)c2ccnn21` (mixture of isomers) [Compound H-4-2, 6-ethyl-N-(2-((R)-9-(pyridin-2-yl)-6-oxaspiro[4.5]decan-9-yl)ethyl)-5,6-dihydro-4H-pyrrolo[1,2-b]pyrazol-4-amine], on MOR receptor (OPRM1) [1], the “cAMP Emax (%) Morphine was 100%” value came to 91.8% and the concentration for a half-maximal effect (EC50) was found to be 18 nM. Further, at MOR receptor (OPRM1) [2], the “β-arrestin Emax (%) Morphine was 100%” value turned out to be 4.8%.
As for `CC1CC(NCC[C@@]2(c3ccccn3)CCOC3(CCCC3)C2)c2ccnn21` (mixture of isomers) [Compound H-12-1, 6-methyl-N-(2-((R)-9-(pyridin-2-yl)-6-oxaspiro[4.5]decan-9-yl)ethyl)-5,6-dihydro-4H-pyrrolo[1,2-b]pyrazol-4-amine], on MOR receptor (OPRM1) [1], the “cAMP Emax (%) Morphine was 100%” value was 99.5% and the EC50 came to 12 nM. The Emax on MOR receptor (OPRM1) [2] turned out to be 12%.
As for `CC1CC(NCC[C@@]2(c3ccccn3)CCOC3(CCCC3)C2)c2ccnn21` (mixture of isomers) [Compound H-12-2, 6-methyl-N-(2-((R)-9-(pyridin-2-yl)-6-oxaspiro[4.5]decan-9-yl)ethyl)-5,6-dihydro-4H-pyrrolo[1,2-b]pyrazol-4-amine], on MOR receptor (OPRM1) [1], the “cAMP Emax (%) Morphine was 100%” value is 77.8% and the pEC50 is 7.92. In addition, on MOR receptor (OPRM1) [2], the “β-arrestin Emax (%) Morphine was 100%” value is listed as 15.7%.
`c1ccc([C@]2(CCNC3CCn4nccc43)CCOC3(CCCC3)C2)nc1` (stereo partly drawn) [Compound H-1, N-(2-((R)-9-(pyridin-2-yl)-6-oxaspiro[4.5]decan-9-yl)ethyl)-5,6-dihydro-4H-pyrrolo[1,2-b]pyrazol-4-amine]: on MOR receptor (OPRM1) [1], the EC50 was 49 nM. For the same molecule, the maximal effect (Emax) came to 125% on MOR receptor (OPRM1) [1] and 29.7% on MOR receptor (OPRM1) [2].
On the same counts, the results for `COC(C)(C)C1CC(NCC[C@@]2(c3ccccn3)CCOC3(CCCC3)C2)c2ccnn21` (stereo partly drawn) [Compound H-2, 6-(2-methoxypropan-2-yl)-N-(2-((R)-9-(pyridin-2-yl)-6-oxaspiro[4.5]decan-9-yl)ethyl)-5,6-dihydro-4H-pyrrolo[1,2-b]pyrazol-4-amine] are 47 nM, 93.2% and 6.2%.
Taken in the same sequence, the figures for `c1ccc([C@]2(CCNC3CC(C4CC4)n4nccc43)CCOC3(CCCC3)C2)nc1` (stereo partly drawn) [Compound H-3, 6-cyclopropyl-N-(2-((R)-9-(pyridin-2-yl)-6-oxaspiro[4.5]decan-9-yl)ethyl)-5,6-dihydro-4H-pyrrolo[1,2-b]pyrazol-4-amine] were 17 nM, 74.6% and 4.9%.
As to `c1ccc([C@]2(CCNC3CC(C4CCCC4)n4nccc43)CCOC3(CCCC3)C2)nc1` (stereo partly drawn) [Compound H-5, 6-cyclopentyl-N-(2-((R)-9-(pyridin-2-yl)-6-oxaspiro[4.5]decan-9-yl)ethyl)-5,6-dihydro-4H-pyrrolo[1,2-b]pyrazol-4-amine], at MOR receptor (OPRM1) [2], the Emax was 4.8%.
`CC(C)(C)C1CC(NCC[C@@]2(c3ccccn3)CCOC3(CCCC3)C2)c2ccnn21` (stereo partly drawn) [Compound H-6, 6-tert-butyl-N-(2-((R)-9-(pyridin-2-yl)-6-oxaspiro[4.5]decan-9-yl)ethyl)-5,6-dihydro-4H-pyrrolo[1,2-b]pyrazol-4-amine]: on MOR receptor (OPRM1) [1], the EC50 is 9 nM and the maximal response (Emax) came out at 99.6%. Also, the Emax at MOR receptor (OPRM1) [2] was found to be 15.3%.
On MOR receptor (OPRM1) [1], `CC(C)(F)C1CC(NCC[C@@]2(c3ccccn3)CCOC3(CCCC3)C2)c2ccnn21` (stereo partly drawn) [Compound H-7, 6-(2-fluoropropan-2-yl)-N-(2-((R)-9-(pyridin-2-yl)-6-oxaspiro[4.5]decan-9-yl)ethyl)-5,6-dihydro-4H-pyrrolo[1,2-b]pyrazol-4-amine] returned a concentration giving a half-maximal response (EC50) of 29 nM. The maximum response (Emax) at MOR receptor (OPRM1) [1] was found to be 105%; at MOR receptor (OPRM1) [2], 22.1%.
On to `CC(C)C1CC(NCC[C@@]2(c3ccccn3)CCOC3(CCCC3)C2)c2c(F)cnn21` (stereo partly drawn) [Compound H-9, 3-fluoro-6-isopropyl-N-(2-((R)-9-(pyridin-2-yl)-6-oxaspiro[4.5]decan-9-yl)ethyl)-5,6-dihydro-4H-pyrrolo[1,2-b]pyrazol-4-amine], for which the Emax at MOR receptor (OPRM1) [2] is 1%.
`CC1(C2CC(NCC[C@@]3(c4ccccn4)CCOC4(CCCC4)C3)c3ccnn32)CC1` (stereo partly drawn) [Compound H-10, 6-(1-methylcyclopropyl)-N-(2-((R)-9-(pyridin-2-yl)-6-oxaspiro[4.5]decan-9-yl)ethyl)-5,6-dihydro-4H-pyrrolo[1,2-b]pyrazol-4-amine]: the EC50 on MOR receptor (OPRM1) [1] was determined as 11 nM. Besides, the figures for the Emax on MOR receptor (OPRM1) [1] and on MOR receptor (OPRM1) [2] were 74.7% and 5.1%, respectively.
`CC(C)C1CC(NCC[C@@]2(c3ccccn3)CCOC3(CCCC3)C2)c2ccnn21` (stereo partly drawn) [Compound H-11, 6-(isopropyl)-N-(2-((R)-9-(pyridin-2-yl)-6-oxaspiro[4.5]decan-9-yl)ethyl)-5,6-dihydro-4H-pyrrolo[1,2-b]pyrazol-4-amine]: on MOR receptor (OPRM1) [1], the concentration giving a half-maximal response (EC50) is 15 nM and the maximal effect (Emax) stood at 84.8%. Further, at MOR receptor (OPRM1) [2], the Emax came out at 4.3%.
Taken in the same sequence, the figures for `CCCC1CC(NCC[C@@]2(c3ccccn3)CCOC3(CCCC3)C2)c2ccnn21` (stereo partly drawn) [Compound H-14, 6-propyl-N-(2-((R)-9-(pyridin-2-yl)-6-oxaspiro[4.5]decan-9-yl)ethyl)-5,6-dihydro-4H-pyrrolo[1,2-b]pyrazol-4-amine] were 31 nM, 73% and 7.2%.
Regarding `CCC(C)C1CC(NCC[C@@]2(c3ccccn3)CCOC3(CCCC3)C2)c2ccnn21` (stereo partly drawn) [Compound H-15, 6-(sec-butyl)-N-(2-((R)-9-(pyridin-2-yl)-6-oxaspiro[4.5]decan-9-yl)ethyl)-5,6-dihydro-4H-pyrrolo[1,2-b]pyrazol-4-amine], on MOR receptor (OPRM1) [1], it took 84 nM to reach a half-maximal effect (EC50) and the maximal response (Emax) was 64.9%.
With `FC(F)(F)C1(C2CC(NCC[C@@]3(c4ccccn4)CCOC4(CCCC4)C3)c3ccnn32)CC1` (stereo partly drawn) [Compound H-17, N-(2-((R)-9-(pyridin-2-yl)-6-oxaspiro[4.5]decan-9-yl)ethyl)-6-(1-(trifluoromethyl)cyclopropyl)-5,6-dihydro-4H-pyrrolo[1,2-b]pyrazol-4-amine], at MOR receptor (OPRM1) [1], a half-maximal effect (EC50) was put at 31 nM and the Emax is 68.6%. In addition, the Emax on MOR receptor (OPRM1) [2] stood at 2.6%.
Consider `CC(C)(C1CC(NCC[C@@]2(c3ccccn3)CCOC3(CCCC3)C2)c2ccnn21)C(F)(F)F` (stereo partly drawn) [Compound H-18, N-(2-((R)-9-(pyridin-2-yl)-6-oxaspiro[4.5]decan-9-yl)ethyl)-6-(1,1,1,-trifluoro-2-methylprop-2-yl)-5,6-dihydro-4H-pyrrolo[1,2-b]pyrazol-4-amine], for which, at MOR receptor (OPRM1) [1], the “cAMP Emax (%) Morphine was 100%” value amounted to 89.1% and the pEC50 is 7.17.
In the case of `c1ccc([C@]2(CCNC3CC4(CCCC4)n4nccc43)CCOC3(CCCC3)C2)nc1` (stereo partly drawn) [Compound H-19, N-(2-((R)-9-(pyridin-2-yl)-6-oxaspiro[4.5]decan-9-yl)ethyl)-4′,5′-dihydrospiro[cyclopentane-1,6′-pyrrolo[1,2-b]pyrazol]-4′-amine], on MOR receptor (OPRM1) [1], the EC50 came out at 21 nM and the Emax stood at 94.1%. Moreover, the Emax at MOR receptor (OPRM1) [2] stood at 17.3%.
Consider `c1ccc([C@]2(CCNC3CC4(CCOCC4)n4nccc43)CCOC3(CCCC3)C2)nc1` (stereo partly drawn) [Compound H-20, N-(2-((R)-9-(pyridin-2-yl)-6-oxaspiro[4.5]decan-9-yl)ethyl)-2,3,4′,5,5′,6-hexahydrospiro[pyran-4,6′-pyrrolo[1,2-b]pyrazol]-4′-amine], for which, on MOR receptor (OPRM1) [1], the response was half-maximal at 4 nM (EC50) and the maximal effect (Emax) amounted to 107%.
In turn, `c1ccc([C@]2(CCNC3CC4(CCC4)n4nccc43)CCOC3(CCCC3)C2)nc1` (stereo partly drawn) [Compound H-21, N-(2-((R)-9-(pyridin-2-yl)-6-oxaspiro[4.5]decan-9-yl)ethyl)-4′,5′-dihydrospiro[cyclobutane-1,6′-pyrrolo[1,2-b]pyrazol]-4′-amine] came in with an EC50 on MOR receptor (OPRM1) [1] of 22 nM. In addition, the maximal response (Emax) came out at 70.8% on MOR receptor (OPRM1) [1] and 8% at MOR receptor (OPRM1) [2].
Taken in the same sequence, the figures for `CC1(C)CC(NCC[C@@]2(c3ccccn3)CCOC3(CCCC3)C2)c2ccnn21` (stereo partly drawn) [Compound H-22, 6,6-dimethyl-N-(2-((R)-9-(pyridin-2-yl)-6-oxaspiro[4.5]decan-9-yl)ethyl)-5,6-dihydro-4H-pyrrolo[1,2-b]pyrazol-4-amine] were 11 nM, 104% and 39.9%.
